Drawing on US10669271B2, “Heterocyclic compounds as immunomodulators” (Incyte Corporation, priority 2018, dated 2020), this text covers EC50 and IC50 for eight molecules.

One may read the EC50 as the concentration that produces a half-maximal response. By IC50 is commonly meant the concentration that gives 50% inhibition.

Bounds are passed on as bounds.

Experiment [1] concerns PD-L1 aAPC/CHO-K1 cells and Jurkat-PD-1-NFAT effector cells. As to the kind of experiment: Nuclear factor of activated T-cells (NFAT) assay. The class given is cell-based. To be noted: Cricetulus griseus; PD-L1 aAPC/CHO-K1 cells with Jurkat-PD-1-NFAT effector cells, 24 hours. As for the experimental part: Example C. Nuclear Factor of Activated T-Cells (NFAT) Assay
PD-L1 aAPC/CHO-Klcells (Promega) were maintained in F-12 medium with addition of 10% FBS, 200 μg/ml Hygromycin B, 250 μg/ml Geneticin (G418). Jurkat-PD-1-NFAT effector cells (Promega) were cultured in RPMI 1640 medium supplemented with 10% FBS, 100 μg/ml Hygromycin B, 500 μg/ml G418. The culture media of PD-L1 aAPC/CHO-K1 cells were first replaced with assay medium (RPMI1640 medium with 1% FBS). The PD-L1 aAPC/CHO-K1 cells were then added in a white 384-well white clear bottom assay plate (CELLCOAT® Tissue Culture Plates, Greiner Bio-One) at 8000 per well in 10 μL assay medium. Test compounds were prepared by serial dilution in DMSO and 0.8 μL test compounds in DMSO were first transferred to the 384 REMP plate well (Thermofisher) by PlateMate Plus (Thermofisher) followed with addition of 50 μL plating medium. 5 μL compounds in the assay medium were transferred to the cells with 0.4% DMSO in the final assay at 2 μM. After removing the culture media, 10,000 Jurkat-PD-1-NFAT effector cells in 5 μL assay medium was dispensed into each well. The assay plate was incubated at 37° C., 5% CO2 for 24 hours. After the assay plate was equilibrated to room temp for 15 minutes, 20 µL/well of Bio-Glo™ reagent (Promega) were added. After 8 minutes incubation at room temperature, luminescence was read at with Pherastar microplate reader (BMG Labtech). The fold of induction (FOI) was calculated based on the ratio of luminescence normalized to the DMSO wells within each assay plate. The maximum percentage of induction was reported based on the ratio between the highest FOI of each compound and the maximum FOI of control compound within each assay plate. Wells with DMSO were served as the negative controls and wells containing control compound with the highest FOI were used as positive controls. EC50 determination was performed by fitting the curve of percent control activity versus the log of the compound concentration using the GraphPad Prism 6.0 software.

Another experiment has as its target PD-L1 (Homo sapiens (Human), UniProt Q9NZQ7). As to the kind of experiment: PD-L1 whole blood internalization assay. Type of experiment: cell-based. To be noted: 1 ng/ml human interferon γ, PD-L1 expression on CD14+ cells, read-out: Whole Blood (24 HR) IC50. As for the experimental part:
Example D. PD-L1 Whole Blood Internalization Assay
To determine PD-L1 internalization in human whole blood, normal human blood (Biological Specialty Corp, Colmar. Pa.) was incubated in the presence or absence of a concentration range of test compounds and 1 ng/ml human interferon γ (R&D Systems Inc. Minn. […] Blood was then stained with PD-L1 (MIH1, eBioscience; or BD Biosciences San Jose, Calif.), CD14 (Life Technologies, Carlsbad, Calif.) for 30 minutes in the dark at room temperature. Whole Blood/red cells were lysed/fixed (lysis buffer BD Biosciences) for 5 minutes at 37° C. in the dark and then centrifuged at 1600 RPM for 5 minutes. Cells were resuspended in Stain Buffer (BD Bioscience, San Jose, Calif.) and transferred into 96 well round bottom plates (Corning). Cells were gated on CD14+(BD Biosciences) and PD-L1 expression determined by mean fluorescence intensity (MFI) (BD LSRFortessa™ X-20). IC50 determination was performed by fitting the curve of compound percent inhibition versus the log of the compound concentration using the GraphPad Prism 7.0 software.

A further experiment addresses PD-1/PD-L1 (Homo sapiens (Human), UniProt Q9NZQ7). As to the kind of experiment: Homogeneous Time-Resolved Fluorescence (HTRF) PD-1/PD-L1 binding assay. To be noted: recombinant human PD-1 and PD-L1, 25° C., pH 7.4. As to the method:
Example A. Homogeneous Time-Resolved Fluorescence (HTRF) PD-1/PD-L1 Binding Assay
The assays were conducted in a standard black 384-well polystyrene plate with a final volume of 20 μL. Inhibitors were first serially diluted in DMSO and then added to the plate wells before the addition of other reaction components. The final concentration of DMSO in the assay was 1%. The assays were carried out at 25° C. in the PBS buffer (pH 7.4) with 0.05% Tween-20 and 0.1% BSA. Recombinant human PD-L1 protein (19-238) with a His-tag at the C-terminus was purchased from AcroBiosystems (PD1-H5229). Recombinant human PD-1 protein (25-167) with Fc tag at the C-terminus was also purchased from AcroBiosystems (PD1-H5257). PD-L1 and PD-1 proteins were diluted in the assay buffer and 10 μL was added to the plate well. Plates were centrifuged and proteins were preincubated with inhibitors for 40 minutes. The incubation was followed by the addition of 10 μL of HTRF detection buffer supplemented with Europium cryptate-labeled anti-human IgG (PerkinElmer-AD0212) specific for Fc and anti-His antibody conjugated to SureLight®-Allophycocyanin (APC, PerkinElmer-AD0059H). After centrifugation, the plate was incubated at 25° C. for 60 min. before reading on a PHERAstar FS plate reader (665 nm/620 nm ratio). Final concentrations in the assay were—3 nM PD1,10 nM PD-L1, 1 nM europium anti-human IgG and 20 nM anti-His-Allophycocyanin. IC50 determination was performed by fitting the curve of percent control activity versus the log of the inhibitor concentration using the GraphPad Prism 5.0 software.
Background: Time-resolved FRET reads energy transfer from a long-lived donor to a nearby acceptor.

Experiment [2] relates to U2OS/PD-L1 cells and Jurkat-PD-1-SHP cells. In words: Src homology region 2 domain-containing phosphatase (SHP) assay. To be noted: Homo sapiens; U2OS/PD-L1 cells with Jurkat-PD-1-SHP cells, 2 hours. The class given is cell-based. As to the method:
Example B. Src Homology Region 2 Domain-Containing Phosphatase (SHP) Assay
U2OS/PD-L1 cells (DiscoveRx Corporation) were maintained in McCoy's 5A medium with addition of 10% FBS, 0.25 μg/ml Puromycin. After removing the culture media, the cell medium was replaced with assay medium (RPMI1640 medium with 1% FBS). The U2OS/PD-L1 cells were then added in 384-well black clear bottom assay plate (CELLCOAT® Tissue Culture Plates, Greiner Bio-One) at 5000 cells per well in 20 μL assay medium. Test compounds were prepared by serial dilution in DMSO and 125 nL compound were first transferred to the 384 REMP plate well (Thermofisher) by ECHO liquid handler (Labcyte) followed with addition of 27.5 μL assay medium. 5 μL/well compounds in the assay medium were transferred to the cell plate with 0.05% DMSO in the final assay at 0.5 μM. Jurkat-PD-1-SHP cells (DiscoveRx Corporation) were cultured in RPMI1640 medium supplemented with 10% FBS, 250 μg/ml Hygromycin B, 500 μg/ml G418. After the replacement of culture media with assay medium, 5,000 Jurkat-PD-1-SHP cells in 20 μL were dispensed into each well. The assay plate was incubated at 37° C., 5% CO2 for 2 hours before 2.5 μL PathHunter reagent 1 (DiscoveRx Corporation) were added to each well. The assay plate was shaken for 1 min at 350 rpm in the dark followed with addition of 10 μL PathHunter reagent 2 (DiscoveRx Corporation). Chemiluminescent signal was recorded with TopCount reader (Perkin Elmer) after incubation at room temperature for 1 hour. Wells with DMSO were served as the positive controls and wells containing no cells were used as negative controls. IC50 determination was performed by fitting the curve of percentage of control activity versus the log of the compound concentration using the GraphPad Prism 6.0 software.

PD-1/PD-L1, sequence (Q9NZQ7 19-238): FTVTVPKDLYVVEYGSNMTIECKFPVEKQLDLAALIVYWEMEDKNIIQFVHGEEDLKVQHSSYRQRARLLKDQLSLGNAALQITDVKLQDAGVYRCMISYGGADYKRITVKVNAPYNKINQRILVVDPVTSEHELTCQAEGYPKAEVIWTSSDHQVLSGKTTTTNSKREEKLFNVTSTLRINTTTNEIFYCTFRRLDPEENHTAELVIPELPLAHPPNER
PD-L1, sequence (Q9NZQ7 19-290): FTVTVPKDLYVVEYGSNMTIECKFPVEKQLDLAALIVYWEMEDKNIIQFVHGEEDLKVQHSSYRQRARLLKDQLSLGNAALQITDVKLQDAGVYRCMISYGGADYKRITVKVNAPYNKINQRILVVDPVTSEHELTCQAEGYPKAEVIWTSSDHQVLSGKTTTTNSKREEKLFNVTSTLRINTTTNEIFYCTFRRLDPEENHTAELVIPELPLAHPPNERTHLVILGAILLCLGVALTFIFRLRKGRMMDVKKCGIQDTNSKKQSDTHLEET

In the case of `Cc1nc(Nc2cccc(-c3cccc(-c4nc5cc(CN6CC[C@@](C)(C(=O)O)C6)cc(C#N)c5o4)c3C)c2C)c2ncc(CN3CC[C@@H](O)C3)cc2n1` [Example 11, (R)-1-((7-cyano-2-(3′-(7-(((R)-3-hydroxypyrrolidin-1-yl)methyl)-2-methylpyrido[3,2-d]pyrimidin-4-ylamino)-2,2′-dimethylbiphenyl-3-yl)benzo[d]oxazol-5-yl)methyl)-3-methylpyrrolidine-3-carboxylic Acid], the EC50 in experiment [1] was 0.01 to 0.1 µM. The IC50 was 0.01 to 0.1 µM on PD-L1, no more than 0.01 µM at PD-1/PD-L1 and no more than 0.01 µM in experiment [2].
In experiment [1], `Cc1c(Nc2nc(C3CC3)nc3cc(CN4CC[C@@H](O)C4)cnc23)cccc1-c1cccc(-c2nc3cc(CN4CC[C@@H](C(=O)O)C4)cc(C#N)c3o2)c1C` [Example 28, (R)-1-((7-cyano-2-(3′-(2-cyclopropyl-7-(((R)-3-hydroxypyrrolidin-1-yl)methyl)pyrido[3,2-d]pyrimidin-4-ylamino)-2,2′-dimethylbiphenyl-3-yl)benzo[d]oxazol-5-yl)methyl)pyrrolidine-3-carboxylic Acid] had an EC50 of 0.01 to 0.1 µM. In addition, the IC50 is 0.1 to 0.5 µM at PD-L1, no more than 0.01 µM at PD-1/PD-L1 and 0.01 to 0.1 µM in experiment [2].
`Cc1nc(Nc2cccc(-c3cccc(-c4nc5cc(CN6CC[C@@H](C(=O)O)C6)cc(C#N)c5o4)c3C)c2C)c2ncc(CN3CC[C@@](C)(O)C3)cc2n1` [Example 7, (R)-1-((7-cyano-2-(3′-(7-(((R)-3-hydroxy-3-methylpyrrolidin-1-yl)methyl)-2-methylpyrido[3,2-d]pyrimidin-4-ylamino)-2,2′-dimethylbiphenyl-3-yl)benzo[d]oxazol-5-yl)methyl)pyrrolidine-3-carboxylic Acid]: the concentration for a half-maximal effect (EC50) in experiment [1] was 0.01 to 0.1 µM. In addition, the IC50 on PD-L1 is 0.01 to 0.1 µM; on PD-1/PD-L1 it was no more than 0.01 µM; in experiment [2], no more than 0.01 µM.
Turning to `Cc1nc(Nc2cccc(-c3cccc(-c4nc5cc(CN6CCC(C(=O)O)CC6)cc(C#N)c5o4)c3C)c2C)c2ncc(CN[C@@H](C)CO)cc2n1` [Example 4, (S)-1-((7-cyano-2-(3′-(7-((1-hydroxypropan-2-ylamino)methyl)-2-methylpyrido[3,2-d]pyrimidin-4-ylamino)-2,2′-dimethylbiphenyl-3-yl)benzo[d]oxazol-5-yl)methyl)piperidine-4-carboxylic Acid], the EC50 in experiment [1] lay in the range of 0.01 to 0.1 µM. In addition, the values for the IC50 (at PD-L1; on PD-1/PD-L1; in experiment [2]) were 0.01 to 0.1 µM, no more than 0.01 µM and no more than 0.01 µM, respectively.
`Cc1nc(Nc2cccc(-c3cccc(-c4nc5cc(CN6CCC(C(=O)O)CC6)cc(C#N)c5o4)c3C)c2C)c2ncc(CN3CC[C@@](C)(O)C3)cc2n1` [Example 2, (R)-1-((7-cyano-2-(3′-(7-((3-hydroxy-3-methylpyrrolidin-1-yl)methyl)-2-methylpyrido[3,2-d]pyrimidin-4-ylamino)-2,2′-dimethylbiphenyl-3-yl)benzo[d]oxazol-5-yl)methyl)piperidine-4-carboxylic Acid] had an EC50 in experiment [1] of 0.01 to 0.1 µM. The IC50 on PD-L1 was 0.01 to 0.1 µM; at PD-1/PD-L1, no more than 0.01 µM; in experiment [2], no more than 0.01 µM.
`Cc1c(Nc2nc(C(F)F)nc3cc(CN4CC[C@](C)(O)C4)cnc23)cccc1-c1cccc(-c2nc3cc(CN4CCC(C(=O)O)CC4)cc(C#N)c3o2)c1C` [Example 31, (S)-1-((7-cyano-2-(3′-(2-(difluoromethyl)-7-((3-hydroxy-3-methylpyrrolidin-1-yl)methyl)pyrido[3,2-d]pyrimidin-4-ylamino)-2,2′-dimethylbiphenyl-3-yl)benzo[d]oxazol-5-yl)methyl)piperidine-4-carboxylic Acid] returned an EC50 in experiment [1] of no more than 0.01 µM. For the same molecule, the IC50 is 0.01 to 0.1 µM at PD-L1, no more than 0.01 µM on PD-1/PD-L1 and no more than 0.01 µM in experiment [2].
`Cc1c(Nc2nc(C(F)F)nc3cc(CN4CC[C@@H](O)C4)cnc23)cccc1-c1cccc(-c2nc3cc(CN4CC[C@@H](C(=O)O)C4)cc(C#N)c3o2)c1C` [Example 17, (R)-1-((7-cyano-2-(3′-(2-(difluoromethyl)-7-(((R)-3-hydroxypyrrolidin-1-yl)methyl)pyrido[3,2-d]pyrimidin-4-ylamino)-2,2′-dimethylbiphenyl-3-yl)benzo[d]oxazol-5-yl)methyl)pyrrolidine-3-carboxylic Acid]: the EC50 in experiment [1] was 0.01 to 0.1 µM. Moreover, the IC50 was 0.01 to 0.1 µM on PD-L1, no more than 0.01 µM on PD-1/PD-L1 and no more than 0.01 µM in experiment [2].
Turning to `Cc1c(Nc2nc(C(F)F)nc3cc(CN4CC[C@@H](O)C4)cnc23)cccc1-c1cccc(-c2nc3cc(CN4CCC(C(=O)O)CC4)cc(C#N)c3o2)c1C` [Example 16, (R)-1-((7-cyano-2-(3′-(2-(difluoromethyl)-7-((3-hydroxypyrrolidin-1-yl)methyl)pyrido[3,2-d]pyrimidin-4-ylamino)-2,2′-dimethylbiphenyl-3-yl)benzo[d]oxazol-5-yl)methyl)piperidine-4-carboxylic Acid], the EC50 in experiment [1] was no more than 0.01 µM. The IC50 is 0.01 to 0.1 µM on PD-L1, no more than 0.01 µM at PD-1/PD-L1 and no more than 0.01 µM in experiment [2].
